Measured values from patent publication US20160166572A1, “BENEFICIAL EFFECTS OF Lp-PLA2 INHIBITORS IN TREATMENT OF DIABETIC RETINOPATHY AND AGE-RELATED MACULAR DEGENERATION” (Rowan University, priority 2014, published 2016).

Key:
[1] = tested on: ganglion cells in the GCL; test: Extravasated IgG in retina (anti-swine IgG IHC) as evidence of BRB compromise, DMHC pigs; assay type: in vivo, pig; settings: Darapladib 10 mg/kg/d orally, 24 weeks
Protocol: Briefly, after induction of diabetes by a single injection of Streptozotocin, animals were fed a high cholesterol diet. After a month of DMHC induction and acclimation, animals were randomly segregated to untreated DMHC and Darapladib-treated DMHC groups. Darapladib-treated pigs received 10 mg/kg/d of Darapladib orally. Three of the pigs were spared from DMHC induction and served as age-matched, non-DMHC normal controls. Twenty four weeks after acclimation, animals were euthanized and their brains and eyes were immediately removed. Brains were divided anteroposteriorly into anterior, middle and posterior regions. For each of these brain regions, 2-3 tissue blocks were generated for routine tissue fixation (10% formalin) or freezing and histological processing. The anterior cortical region comprised of anterior ⅔ of frontal lobe and anterior ⅓ of temporal lobe. […] Extravasated IgG was detected using biotinylated anti-swine IgG antibody (Vector laboratories, Inc., Catalogue # BA-9020; dilution 1:100). […] Slides were examined and photographed with a Nikon FXA microscope, and digital images were recorded using a Nikon DXM1200F digital camera and analyzed using MATLAB (MathWorks, Mass., USA) and NIS-elements software (Nikon, Melville, N.Y.). […] The percentage of IgG-positive ganglion cells relative to total ganglion cells in the GCL was calculated. […]

[2] = tested on: claudin5; test: Claudin5 gene expression in cerebral cortex (RT-PCR, beta-actin reference), DMHC pigs; assay type: in vivo, pig; settings: Darapladib 10 mg/kg/d orally, 24 weeks, rank among treatment groups, FIG. 8A
Protocol: Briefly, after induction of diabetes by a single injection of Streptozotocin, animals were fed a high cholesterol diet. After a month of DMHC induction and acclimation, animals were randomly segregated to untreated DMHC and Darapladib-treated DMHC groups. Darapladib-treated pigs received 10 mg/kg/d of Darapladib orally. Three of the pigs were spared from DMHC induction and served as age-matched, non-DMHC normal controls. Twenty four weeks after acclimation, animals were euthanized and their brains and eyes were immediately removed. Brains were divided anteroposteriorly into anterior, middle and posterior regions. […]
Relative quantification of claudin5 and occludin gene expression was carried out using the reporter dye SYBR green and Applied Biosystems 7500 real time polymerase chain reaction (RT-PCR) system. […] Relative quantification of the claudin5 and occludin gene expression was conducted using beta actin (β-actin), a house keeping gene, as a standard. The amplification profiles of all samples were analyzed using Applied Biosystems software. […]
Changes in claudin 5 and occludin gene expression in response to DMHC and Darapladib treatment were assessed in the middle brain region only of the pig cerebral cortex by real-time polymerase chain reaction (RT-PCR) using beta-actin as a reference (FIG. 8).

SMILES: CCN(CC)CCN(Cc1ccc(-c2ccc(C(F)(F)F)cc2)cc1)C(=O)Cn1c(SCc2ccc(F)cc2)nc(=O)c2c1CCC2 [Darapladib]
- plasma and IgG influx into retinal layers [1]: curtailed plasma and IgG influx into retinal layers
- percentage of IgG-positive ganglion cells relative to total ganglion cells in the GCL ([1]; rank among treatment groups, FIG. 4D): followed by untreated controls and then the DMHC-Darapladib group
- claudin5 gene expression, middle brain region of cerebral cortex [2]: highest claudin5 and occludin levels
